Measurements taken from patent publication EP0845217A1, “Inhibiting undesirable taste in oral compositions” (priority 1996, dated 1998).

Legend:
alkaline phosphatase = alkaline phosphatase (Bos taurus, UniProt P19111); format: biochemical, bovine; conditions: PNPP substrate
Method: Enzyme kinetics experiments are done using purified alkaline phosphatase from bovine intestine and the substrate para-nitrophenyl phosphate (PNPP). The formation of colored para-nitrophenol (PNP) from colorless PNPP is followed by measuring the color formation in the presence of inhibitor at several concentrations.
Specifically, enzyme reactions are done in a volume of 200 ul containing 12.5 mU/ml alkaline phosphatase, PNPP at concentrations between 0.5-200 mM, and an inhibitor at concentrations between 0-100 mM. […] Phosphoserine is the natural substrate for this enzyme. The final buffer solution is 0.9 M diethanolamine and 0.5 mM […], pH 9.8, mixed 3:1 (v:v) with water. Reactions are done in a 96-well microtiter plate. The enzyme reaction is initiated by the addition of the enzyme. Each reaction mixture is done in triplicate. The enzyme reaction is monitored by measuring the optical density (OD) at 405 nm, with a reference OD of 490 nm. The OD's are read every 30 seconds over a 15 minute period at room temperature. PNP concentration is determined based on a standard curve correlating OD405/490 vs. PNP concentration. […] The data is then transformed and plotted as the Kmapp / Vmax. vs. inhibitor concentration. From these plots the dissociation constant of the enzyme-inhibitor complex, Ki, is determined. The x-intercept on this plot equals (-Ki). […]

[1] = tested on: acid phosphatase (EC 3.1.3.2) type V; test: Acid phosphatase enzyme kinetics with PNPP substrate; format: biochemical, bovine
Method: Enzyme kinetics are done using purified acid phosphatase (EC 3.1.3.2) type V from bovine milk with PNPP as the substrate. The enzyme kinetics experiments are done similarly to the kinetics experiments for alkaline phosphatase, described above.
The buffer is 0.2 M sodium acetate buffer, pH 5.6. Reactions are done in a 96-well microtiter plate. The enzyme reaction is initiated by the addition of enzyme. The enzyme reaction is stopped by the addition of 50 ul of 3 N NaOH to each well. Reaction times are from 0-15 minutes, at 30 second intervals. As described previously, the reaction rate is determined by measurement of the formation of colored product, PNP, which correlates with OD405/490. Acid phosphatase has a linear enzyme reaction rate for 15 minutes with the concentration ranges tested. Calculation of the Ki is done as described above.

Chain of alkaline phosphatase (P19111 20-506): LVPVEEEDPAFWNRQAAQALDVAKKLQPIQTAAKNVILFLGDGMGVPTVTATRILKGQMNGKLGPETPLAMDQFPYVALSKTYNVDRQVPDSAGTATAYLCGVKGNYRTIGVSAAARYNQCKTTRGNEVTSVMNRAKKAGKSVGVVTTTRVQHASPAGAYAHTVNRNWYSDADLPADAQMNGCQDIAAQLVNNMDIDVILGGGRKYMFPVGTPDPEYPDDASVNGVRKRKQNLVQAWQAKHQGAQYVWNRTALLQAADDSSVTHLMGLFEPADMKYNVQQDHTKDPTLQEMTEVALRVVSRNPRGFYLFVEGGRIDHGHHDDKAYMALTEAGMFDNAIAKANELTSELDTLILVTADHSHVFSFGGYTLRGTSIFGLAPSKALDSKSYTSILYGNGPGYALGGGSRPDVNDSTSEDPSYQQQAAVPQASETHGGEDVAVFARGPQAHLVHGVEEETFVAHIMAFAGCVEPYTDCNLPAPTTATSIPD

## vanillylmonophosphate [VMP]
Alkaline phosphatase
  type of inhibition of alkaline phosphatase: competitively inhibited
[1]; PNPP substrate
  type of inhibition of acid phosphatase: competitively inhibited
[1]; PNPP substrate at room temperature, pH 5.6
  Ki: 9.16 mM
